Laboratory results taken from patent US20080009025A1, “PROTEIN KINASE REGULATION” (priority 1999, published 2008).
Where a SMILES comes first, the peptide text is derived from it.

Key:
GST-PDK1 = biological target: T1, GST-PDK1 (Homo sapiens, UniProt O15530); assay: Thermal denaturation of PDK1 (TM50); type: biochemical; conditions: wild type GST-PDK1; heated 2 min
T1 construct: Full length PDK1 (residues 1-556); made in house; host or cells: 293 cells
T1 sequence (O15530 1-556): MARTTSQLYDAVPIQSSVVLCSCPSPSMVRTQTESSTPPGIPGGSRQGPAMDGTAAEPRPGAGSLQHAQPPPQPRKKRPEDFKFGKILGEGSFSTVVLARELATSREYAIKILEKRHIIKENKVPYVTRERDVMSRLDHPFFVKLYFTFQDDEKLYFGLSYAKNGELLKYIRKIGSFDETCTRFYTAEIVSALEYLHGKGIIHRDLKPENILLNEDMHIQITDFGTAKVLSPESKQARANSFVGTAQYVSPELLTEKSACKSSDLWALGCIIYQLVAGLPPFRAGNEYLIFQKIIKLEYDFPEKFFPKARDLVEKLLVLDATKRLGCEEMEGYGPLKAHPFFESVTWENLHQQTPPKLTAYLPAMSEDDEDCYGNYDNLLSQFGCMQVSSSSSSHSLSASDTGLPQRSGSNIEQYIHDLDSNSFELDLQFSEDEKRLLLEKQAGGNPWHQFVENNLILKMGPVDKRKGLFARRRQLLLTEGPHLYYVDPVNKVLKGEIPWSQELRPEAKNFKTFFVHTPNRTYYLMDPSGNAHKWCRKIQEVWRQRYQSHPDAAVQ
Excerpt: A further aspect of the invention provides the use of an interacting polypeptide as defined above, for example comprising the amino acid sequence Phe/Tyr-Xaa-Xaa-Phe/Tyr or an interacting compound of the invention in a method of stabilising a protein kinase having a hydrophobic pocket in the position equivalent to the hydrophobic pocket of Protein Kinase A (PKA) that is defined by residues including Lys76, Leu116, Val80 and/or Lys111 of full-length mouse PKA, wherein the protein kinase is exposed to the compound or polypeptide. Stabilisation may be measured by measuring the TM50 value. The TM50 value is the temperature at which heating for two minutes produces a 50% reduction in protein kinase activity (measured using any appropriate substrate) compared with the protein kinase activity before such heating, as described in Example 2. An increase in the TM50 value, for example by at least about 1, 2, 3, 4, 5, 6, 7, 8, 9, 10 or 15° C. indicates stabilisation.
FIG. 12. PDK1 is activated and stabilised through its interaction with PIFtide. (A) GST-PDK1 activity was measured in the presence of increasing concentrations of wild type (wt) PIFtide (closed circles) or a mutant D978A PIFtide (open circles) using the synthetic peptide substrate termed T308tide, as described in Material and Methods. The data was fitted to a hyperbola using the Kaleidagraph™ software. […]

PDK1 = biological target: T2, PDK1 (Homo sapiens, UniProt O15530); assay: Phosphorylation of p70 S6K at Thr412 by PDK1 in vitro (T412-P immunoblot); type: biochemical; set-up: made in house; host or cells: 293 cells or E. coli; conditions: peptide 4 μM
T2 sequence (O15530 1-556): T1 sequence (O15530 1-556)
Description: FIG. 2. PDK1 phosphorylates p70 S6K at Thr412 in vitro and this is inhibited by PIF. 0.5 μg of either wild type GST-p70 S6K-T2 (wt), T252A-GST-p70 S6K-T2 (252A) or T412A-GST-p70 S6K-T2 (412A) were incubated for 90 min at 30° C. with MgATP in the presence or absence of wild type (wt) or kinase-dead (kd) GST-PDK1 expressed in either 293 cells or bacteria in the presence (+) or absence (−) of the wild type PIF peptides (4 μM) in a final volume of 20 μl. The reactions were terminated by making the solutions 1% in SDS, the samples were subjected to SDS-polyacylamide gel electrophoresis, and the phosphorylation of p70 S6K at Thr412 was assessed by immunoblotting with the T-412P antibody. Similar results were obtained in three separate experiments.
Immunoblotting for dephosphorylated and Thr412-phosphorylated p70 S6 kinase. Cell lysates were made 1% SDS and the indicated amounts of protein were subjected to SDS/Polyacrylamide gel electrophoresis, subsequently transferred to nitrocellulose and immunoblotted using the indicated monoclonal antibody or the T412-P phospho-specific antibody (0.4 μg/ml) in 50 mM Tris/HCl pH7.5, 0.15M NaCl, 0.5% (by vol) Tween and 10% (by mass) skimmed milk. Detection was performed using the enhanced chemiluminescence reagent (Amersham Pharmacia Biotech).

SMILES: CC[C@H](C)[C@H](NC(=O)[C@H](Cc1ccc(O)cc1)NC(=O)[C@H](CC(=O)O)NC(=O)[C@H](Cc1ccccc1)NC(=O)[C@H](CC(=O)O)NC(=O)[C@H](CCCNC(=N)N)NC(=O)[C@H](Cc1ccccc1)NC(=O)[C@H](CCSC)NC(=O)[C@H](CCC(=O)O)NC(=O)[C@H](CCC(N)=O)NC(=O)[C@H](CCC(=O)O)NC(=O)[C@H](CCC(=O)O)NC(=O)[C@H](CCC(=O)O)NC(=O)[C@H](CO)NC(=O)[C@H](CC(C)C)NC(=O)[C@@H](NC(=O)[C@H](CCCNC(=N)N)NC(=O)[C@@H]1CCCN1C(=O)[C@H](CCC(=O)O)NC(=O)[C@@H](N)CCCNC(=N)N)[C@@H](C)CC)C(=O)N[C@@H](C)C(=O)N[C@@H](CC(=O)O)C(=O)N[C@@H](Cc1c[nH]c2ccccc12)C(=O)N[C@@H](CS)C(=O)O [PIFtide] (H-REPRILSEEEQEMFRDFDYIADWC-OH; N-terminus and C-terminus assumed)
- increase of TM50 (GST-PDK1): 8-10 °C
- effect on phosphorylation of p70 S6K at Thr412 by PDK1 (PDK1): prevented
